# Experimental data published in patent US20050148514A1, “Method and composition for treatment of angiogenesis” (priority 2003, published 2005).
# Entries after “also recorded” stand apart in the source; their conditions may differ. Where no end group is shown, it is not given here.
# Columns and labels:
# [1] = test system: total MMP-9, i.e., human active and pro-MMP-9; experiment: Total MMP-9 ELISA (Quantikine) on plasma of prostate cancer patients treated with the drug; assay type: in vivo; conditions: for MMP-9 level in plasma, D27C1: day 27 of treatment cycle 1; for Maximum Reduction of MMP-9: versus baseline D1C1; for MMP-9 level in plasma, D27C2: day 27 of treatment cycle 2
# Method: The reconstituted drug used in the present example is made from a solution containing a 20 mg/mL of PCK3145 derivative (SEQ ID NO.:5 derivative); SEQ ID NO.: 7, in a phosphate buffer at pH 7.4 for dilution in sterile saline (0.9% NaCl, BP) prior to intravenous administration. The solutions is filled into Type 1 glass vials, stoppered with Teflon®-faced butyl stoppers, and sealed with flip-off seals.
# The drug was administered to patients characterized as having metastatic adenocarcinoma of the prostate, stage 1V prostatic cancer and as having a metastatic hormone resistant prostatic cancer.
# Biological samples were drawn during different time points. Plasma samples were placed on dry ice and stored frozen (approximately −70° C.) and subsequently analyzed for total MM P-9 levels.
# MMP-9 assay methodology. An Elisa assay measuring total MMP-9, i.e., human active and pro-MMP-9, (Quantikine®, Cat. No.: DMP900, R&D Systems Inc.) was performed on plasma-heparin samples. Plasma samples have been collected from individuals at day 1 (before treatment) and at day 27 of each treatment cycle.
# The Quantikine® MMP-9 immunoassay is a solid phase ELISA designed to measure total MMP-9 (92 kDa pro- and 82 kDa active forms) in serum, plasma, saliva, urine and cell culture supernatants. It is calibrated with CHO-cells expressed recombinant human pro-MMP-9 and the antibodies were raised against the recombinant factor. Both antibodies also recognize recombinant human active MMP-9.
# The assay employs the quantitative sandwich enzyme immunoassay technique. A monoclonal antibody specific for MMP-9 has been pre-coated onto a microplate. Standards and samples are added into the wells, and MMP-9 is thus bound by the immobilized antibody. After washing away unbound substances, an enzyme-linked polyclonal antibody specific for MMP-9 is added to the wells. Following a wash to remove unbound antibody-enzyme reagent, a substrate solution is added to the wells and color develops in proportion to the amount of total MMP-9 (pro and/or active) bound in the initial step. The color development is stopped and the intensity of the color is measured.
# Results of MMP-9 levels in patient's plasma, before and after one or more treatment cycle with PCK3145 derivative; SEQ ID NO.: 7 are illustrated in Table 2.
# Normal values of healthy volunteers were not determined in this study but lizasa et al., has determined that the normal range of plasma MMP-9 concentrations is about 11.4 to 59.4 ng/ml. Based on theses values, patients were sub-divided into two categories; those having normal value of MMP-9 (below 100 μg/L) and those having an elevated level of MMP-9 (higher than 100 μg/L) at baseline (see column identified as D1C1 in Table2).
# [2] = test system: ERK; experiment: Growth factor-induced ERK phosphorylation in HUVEC (western blot); assay type: cell-based, Human
# Method: Cell culture. Human umbilical vein endothelial cells (HUVEC) and pulmonary aortic smooth muscle cells (PASMC) were obtained from Clonetics and maintained in endothelial cell basal medium-2, (EBM-2; Clonetics) and smooth muscle medium-2 (SmGM-2; Clonetics), respectively. Cells were cultured at 37° C. under a humidified atmosphere containing 5% CO2. For experimental purposes, cells were plated in 8 100-mm plastic dishes at 5,000 cells/cm^2 and were grown to confluence before overnight serum starvation. Cells were treated with vehicle or with a PCK3145 derivative diluted in 0.1 N NaOH, and stimulated with 50 ng/ml VEGF, PDGF or with 1 μM S1P.
# Immunoprecipitation and immunoblotting procedures. After treatment, cells were washed once with phosphate-buffered saline (PBS) containing 1 mM sodium orthovanadate and were incubated in the same medium for 1 h at 4° C. The cells were solubilized on ice in lysis buffer (150 mM NaCl, 10 mM Tris-HCl, pH 7.4, 1 mM EDTA, 1 mM EGTA, 0.5% Nonidet P-40, 1% Triton X-100) containing 1 mM sodium orthovanadate. The cells were then scraped from the culture dishes and the resulting lysates were clarified by centrifugation at 10,000 g for 10 min. Protein concentrations were determined using the micro bicinchoninic acid method. For immunoprecipitation studies, lysates were clarified by a 1 h incubation at 4° C. with a mixture of Protein A/Protein G Sepharose beads. After removal of the Sepharose beads by low-speed centrifugation, identical amounts of protein (200 μg) from each sample were transferred to fresh tubes and incubated in lysis buffer overnight at 4° C. in the presence of 2 μg/ml of specific antibodies. Immunocomplexes were collected by incubating the mixture with 25 μl (50% suspension) of Protein A—(rabbit primary antibody) or Protein G—(mouse primary antibody) Sepharose beads, for 2 h. Nonspecifically-bound material was removed by washing the beads three times in 1 ml of lysis buffer containing 1 mM sodium orthovanadate, and bound material was solubilized in 25 μl of two-fold concentrated Laemmli sample buffer, boiled 5 min, and resolved by SDS-PAGE. The proteins were transferred onto polyvinylidene difluoride (PVDF) membranes, blocked 1 h at room temperature with Tris-buffered saline/Tween 20 (147 mM NaCl, 20 mM Tris/HCl, pH 7.5, and 0.1% Tween 20) containing 2% bovine serum albumin and incubated overnight at 4° C. with primary antibody.
# VEGF is a strong activator of ERKs (Extracellular-signal-Regulated protein Kinases) 1 and 2 via VEGF receptor 2. In order to test the ability of the PCK3145 derivative in potentially antagonizing VEGF-mediated ERK phosphorylation, serum-starved quiescent endothelial cells (HUVEC) were incubated with vehicle (phosphate-buffered saline (PBS) pH 7.4) or PCK3145 derivative (300 μg/ml) for 24 h and then stimulated with VEGF, bFGF (basic Fibroblast Growth Factor) or S1P (sphingosine-1-phosphate). Cells were washed with PBS containing NaF/Na3VO4 and incubated in the same medium buffer for 1 h at 4° C. The cells were scraped from the culture dishes and the resulting lysates clarified by centrifugation. Western blotting and immunodetection using anti-phosphoERK and anti-ERK antibodies was then performed.
sequence,measurement,setting,value
EWQTDNCETCTCYET (cysteine pairing not given here),change in MMP-9 levels compared to baseline,"[1]; elevated MMP-9 category (patients A, B, C and D), each patient after one cycle of treatment",significant decrease
same,change in MMP-9 levels compared to baseline,"[1]; normal value MMP-9 category (patients E, F, G, H and I), after one cycle of treatment",no significant decrease
same,decrease in MMP-9 levels compared to baseline levels,"[1]; patient A, after one cycle of treatment",up to 89%
same,"MMP-9 level in plasma, D27C1","[1]; patient A, elevated MMP-9 (baseline D1C1 424)",47.3 µg/L
same,Maximum Reduction of MMP-9,[1]; patient A,89%
same,decrease in MMP-9,"[1]; patient B, after cycle 1",41%
same,"MMP-9 level in plasma, D27C1","[1]; patient B, elevated MMP-9 (baseline D1C1 156.5)",91.6 µg/L
same,reduction of baseline level of MMP-9,"[1]; patient B, treatment cycle 2",64%
same,reduction of baseline level of MMP-9,"[1]; patient B, treatment cycle 3",65%
same,reduction of baseline level of MMP-9,"[1]; patient B, treatment cycle 4",75%
same,Maximum Reduction of MMP-9,[1]; patient B,75%
same,decrease in MMP-9,"[1]; patient C, at cycle 1",90%
same,reduction in MMP-9 levels,"[1]; patient C, cycle 2",76%
same,"MMP-9 level in plasma, D27C1","[1]; patient C, elevated MMP-9 (baseline D1C1 155)",14.9 µg/L
same,Maximum Reduction of MMP-9,[1]; patient C,90%
same,decrease in MMP-9,"[1]; patient D, at cycle 1",34%
same,"MMP-9 level in plasma, D27C1","[1]; patient D, elevated MMP-9 (baseline D1C1 130.2)",85.2 µg/L
same,Maximum Reduction of MMP-9,[1]; patient D,34%
same,"MMP-9 level in plasma, D27C2",[1]; patient E (baseline D1C1 57.5),60.1 µg/L
same,change in MMP-9 levels compared to baseline,"[1]; patient E, after 3 cycles of treatment",still no MMP-9 decrease
same,"MMP-9 level in plasma, D27C1","[1]; patient E, normal MMP-9 (baseline D1C1 57.5)",58 µg/L
same,"MMP-9 level in plasma, D27C1","[1]; patient F, normal MMP-9 (baseline D1C1 53.2)",73.1 µg/L
same,"MMP-9 level in plasma, D27C2",[1]; patient G (baseline D1C1 33.9),189.6 µg/L
same,"MMP-9 level in plasma, D27C1","[1]; patient G, normal MMP-9 (baseline D1C1 33.9)",45.4 µg/L
same,"MMP-9 level in plasma, D27C2",[1]; patient H (baseline D1C1 57.0),65 µg/L
same,"MMP-9 level in plasma, D27C1","[1]; patient H, normal MMP-9 (baseline D1C1 57.0)",44.0 µg/L
same,"MMP-9 level in plasma, D27C1","[1]; patient I, normal MMP-9 (baseline D1C1 22.1)",18.8 µg/L
same,change in MMP-9 levels compared to baseline,"[1]; patients E and G, after 2 cycles of treatment",no decrease in MMP-9 levels was observed
same,time-course of effect on VEGF-induced ERK phosphorylation,"[2]; HUVEC, 3 and 24 hrs",necessity of a long term action
same,total amount of ERK,"[2]; HUVEC, each sample of cells",unaffected
same,dose-response of ERK phosphorylation by VEGF,"[2]; HUVEC, increasing doses",gradually inhibit
same,ERK phosphorylation induced by VEGF,"[2]; serum-starved HUVEC, 300 μg/ml for 24 h, then VEGF",specific inhibitory effect; also recorded: comparable to that of PD98059
same,ERK phosphorylation induced by bFGF,"[2]; serum-starved HUVEC, 300 μg/ml for 24 h, then bFGF",not that induced by bFGF
